Data reported in patent US8337835B2, “Use of an endogenous ligand for peroxisome proliferator activated receptor alpha to treat liver disorders” (priority 2009, dated 2012).

Test system: PPARα target gene (ACO and CPT-1) expression
Test: PPARα target gene (ACO and CPT-1) expression by quantitative RT-PCR in Hepa 1-6 cells
Type: cell-based
Conditions: Hepa 1-6 mouse hepatoma cells, 24 h, serum-free DMEM
Method: RT-PCR gene expression analysis and binding assays were employed to address this objective. Wy14,643, 16:0/18:1-GPC, and 18:1/16:0-GPC on PPARα target gene (ACO and CPT-1) expression was measured by quantitative RT-PCR in Hepa 1-6 cells treated for 24 h as in FIG. 6A. Results are mean±SEM of 9 separate experiments. *, P<0.05 compared to control (Ctrl, 80% PBS/20% DMSO).
The C57BL/6 mouse hepatoma cell line Hepa 1-6 (ATCC, CRL-1830) was expanded in DMEM with 10% fetal bovine serum. For experiments, cells were cultured to 50-60% confluence, washed twice with PBS, and the medium was changed to serum-free DMEM supplemented with the various types and concentrations of phosphatidylcholine (sonicated to homogeneity in PBS/1% ethanol/4% fatty acid-free BSA), Wy14,643 (dissolved in 80% PBS/20% DMSO), or vehicle-only solutions. 24 h later, cells were washed, RNA prepared, and ACO and CPT-1 expression levels were determined by quantitative RT-PCR (see FIG. 6). For siRNA experiments, 50-60% confluent cells were treated with siRNAs or their scrambled controls (all diluted in PBS) for 72 h. Following the 72 h siRNA treatment, another set of cells received 16:0/18:1-GPC (using a concentration based on dose-response experiments) for an additional 24 h. Stealth™ siRNA oligonucleotides were used to inhibit the gene expression of mouse ChPT1 ([…]) (SEQ ID NO: 1) and CEPT1 ([…]) (SEQ ID NO: 2) were from Invitrogen (Carlsbad, Calif.).
Total RNA was extracted from Hepa 1-6 cells and liver using Trizol (Invitrogen) and treated with DNase I (RNase-free, Roche Molecular Biochemicals). Reverse transcription to cDNA and real-time quantitative PCR were performed using previously published procedures and primer-probe sequences for ACO and CPT-1 (Chakravarthy et al., 2005). […] Relative mRNA levels were calculated using both the comparative CT and standard curve methods normalized to ribosomal protein L32, an invariant internal control. […]

`CCCCCCCC/C=C\CCCCCCCC(=O)OC[C@H](COP(=O)([O-])OCC[N+](C)(C)C)OC(=O)CCCCCCCCCCCCCCC` [18:1/16:0-GPC, 1-oleoyl-2-palmitoyl-sn-glycero-3-phosphocholine, reference compound] was tested, and the “expression of PPARα-dependent genes ACO and CPT-I” value was “does not induce PPARα-dependent gene expression”.
